# Results as given in BindingDB's records for doi:10.1016/j.bioorg.2017.02.017 (Warsaw University of Technology, 2017).
# Target: Casein kinase II subunit alpha (Homo sapiens, UniProt P68400)
# Assay: CK2α Inhibition Assay
# Method: The activity of CK2α was tested using P81 filter isotopic assay, as it was described earlier [Łukowska-Chojnacka et al., Bioorg.
# Casein kinase II subunit alpha, sequence (P68400 whole entry): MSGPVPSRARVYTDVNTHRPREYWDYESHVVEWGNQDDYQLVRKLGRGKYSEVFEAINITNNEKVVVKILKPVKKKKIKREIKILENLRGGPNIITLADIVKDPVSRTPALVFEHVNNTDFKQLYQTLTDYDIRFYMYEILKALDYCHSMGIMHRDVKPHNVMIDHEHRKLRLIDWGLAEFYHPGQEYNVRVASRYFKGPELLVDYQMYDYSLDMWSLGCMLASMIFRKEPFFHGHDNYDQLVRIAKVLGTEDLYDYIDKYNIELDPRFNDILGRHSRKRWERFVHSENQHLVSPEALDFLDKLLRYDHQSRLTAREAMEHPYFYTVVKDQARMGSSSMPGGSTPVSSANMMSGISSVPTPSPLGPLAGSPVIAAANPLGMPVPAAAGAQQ
row,Structure (SMILES),Ki
1,"O=C(O)CCc1cn(CCCn2nc3c(Br)c(Br)c(Br)c(Br)c3n2)nn1 [3-{1-[3-(4,5,6,7-Tetrabromo-2H-benzotriazol-2-yl)propyl]-1H-1,2,3-triazole-4-yl}propanoic acid (23)]",3160 nM
2,"[N-]=[N+]=NCCCn1cnc2c(Br)c(Br)c(Br)c(Br)c21 [1-(3-Azidopropyl)-4,5,6,7-tetrabromo-1H-benzimidazole (5)]",3280 nM
3,"O=C(O)c1cn(CCCn2nc3c(Br)c(Br)c(Br)c(Br)c3n2)nn1 [1-[3-(4,5,6,7-Tetrabromo-2H-benzotriazol-2-yl)propyl]-1H-1,2,3-triazole-4-carboxylic acid (22)]",2470 nM
4,"O=C(O)CCc1cn(CCn2cnc3c(Br)c(Br)c(Br)c(Br)c32)nn1 [3-{1-[2-(4,5,6,7-Tetrabromo-1H-benzimidazol-1-yl)ethyl]-1H-1,2,3-triazole-4-yl}propanoic acid (8)]",5370 nM

# Stronger by Ki, values ahead:
row,Ki,Structure (SMILES)
1,2260 nM,"Cc1c(Br)c(Br)c(Br)c2nc[nH]c12 [4,5,6-tribromo-7-methyl-1H-benzimidazole (13)]"
2,1960 nM,"O=C(O)c1cn(CCn2cnc3c(Br)c(Br)c(Br)c(Br)c32)nn1 [1-[2-(4,5,6,7-Tetrabromo-1H-benzimidazol-1-yl)ethyl]-1H-1,2,3-triazole-4-carboxylic acid (7)]"
3,2340 nM,"[N-]=[N+]=NCCn1cnc2c(Br)c(Br)c(Br)c(Br)c21 [1-(2-Azidoethyl)-4,5,6,7-tetrabromo-1H-benzimidazole (3)]"
4,910 nM,"O=C(O)c1cn(CCCn2cnc3c(Br)c(Br)c(Br)c(Br)c32)nn1 [1-[3-(4,5,6,7-Tetrabromo-1H-benzimidazol-1-yl)propyl]-1H-1,2,3-triazole-4-carboxylic acid (10)]"
5,2370 nM,"O=C(O)CCc1cn(CCCn2cnc3c(Br)c(Br)c(Br)c(Br)c32)nn1 [3-{1-[3-(4,5,6,7-Tetrabromo-1H-benzimidazol-1-yl)propyl]-1H-1,2,3-triazole-4-yl}propanoic acid (11)]"
